# Article PMC8145704, “Conformational Plasticity of Hepatitis B Core Protein Spikes Promotes Peptide Binding Independent of the Secretion Phenotype” (Microorganisms, 2021)
# “Also recorded” adds a separate entry of the source. Read-outs that look alike come from different tables or passages of the source. Ends that are not written are not given here.
# Tests used:
# [1] = biological target: T1, WT-HBc capsids (hepatitis B core protein) (Hepatitis B virus genotype D subtype ayw, UniProt P03146); assay type: binding, Hepatitis B virus (genotype D; strain ayw); conditions: for KD: N-terminally unmodified, terminally amidated peptides, dnb = did not bind HBc, SLLGRM fitted with stoichiometry fixed to 0.25
# T1 construct: these predictions are also valid for full-length variants with randomly packaged host–RNA; made in house; host or cells: E. coli BL21 (DE3) Star
# [2] = for solubility (soluble up to): no buffer stated at this place, peptides were dissolved in ITC dialysis buffer, pH 7.5
# [3] = biological target: P5T-HBc capsids (Hepatitis B virus genotype D subtype ayw, UniProt P03146, P5T); experiment: Isothermal titration calorimetry (ITC) of peptide binding to P5T-HBc capsids; design: species or system Hepatitis B virus (genotype D; strain ayw); conditions: 20 °C, ITC buffer 2, mean ± SD of 6 repeats
# [4] = biological target: F97L-HBc capsids (Hepatitis B virus genotype D subtype ayw, UniProt P03146, F97L); experiment: Isothermal titration calorimetry (ITC) of peptide binding to F97L-HBc capsids; design: species or system Hepatitis B virus (genotype D; strain ayw); conditions: 20 °C, ITC buffer 2, mean ± SD of 5 repeats
# [5] = biological target: L60V-HBc capsids (Hepatitis B virus genotype D subtype ayw, UniProt P03146, L60V); experiment: Isothermal titration calorimetry (ITC) of peptide binding to L60V-HBc capsids; design: species or system Hepatitis B virus (genotype D; strain ayw); conditions: 20 °C, ITC buffer 2, stoichiometry fixed to 0.5, mean ± SD of 3 repeats
# [6] = tested on: WT-HBc capsids; conditions: GRMKG added at 10-fold molar excess; SLLGRM sample taken at the end of the ITC experiment (more than 95% of binding sites occupied)
# [7] = ITC, 37 °C, ITC buffer 1, single repeat, ± fit error
# [8] = ITC, 20 °C, ITC buffer 2, mean ± SD of 6 repeats
# [9] = ITC, 20 °C, ITC buffer 2, single repeat, ± fit error
compound,measurement,setting,value
CSCC[C@H](NC(=O)[C@H](CCCNC(=N)N)NC(=O)CNC(=O)[C@H](CC(C)C)NC(=O)[C@H](CC(C)C)NC(=O)[C@H](CO)NC(=O)[C@H](CCCNC(=N)N)NC(=O)[C@H](Cc1c[nH]cn1)NC(=O)[C@@H](N)CCSC)C(=O)N[C@@H](CCCCN)C(=O)NCC(=O)N[C@@H](C)C(N)=O [P1],∆ST,"[1]; ITC, 37 °C, ITC buffer 1, single repeat",-2.5 kcal/mol
same,Ratio Peptide/HBc,[1]; [7],0.45 ± 0.02
same,∆H,[1]; [7],-9.0 ± 0.6 kcal/mol
same,aggregation of HBc capsids caused by the peptide,"[1]; in words, endothermic contribution at higher P1 concentrations in ITC (37 °C, ITC buffer 1) attributed to aggregation",aggregation of P1 and capsids; also recorded: causes aggregation of HBc capsids
same,solubility (soluble up to),[2],up to 8 mM
CSCC[C@H](NC(=O)[C@H](CCCNC(=N)N)NC(=O)CNC(=O)[C@H](CC(C)C)NC(=O)[C@H](CC(C)C)NC(=O)[C@H](CO)NC(=O)CN)C(=O)N[C@@H](CCCCN)C(=O)NCC(=O)N[C@@H](C)C(N)=O [P2],∆H,[1]; [8],-14.4 ± 1.6 kcal/mol
same,∆ST,[1]; [8],-8.8 ± 1.6 kcal/mol
same,∆H,[3],-7.7 ± 0.8 kcal/mol
same,∆ST,[3],-2.1 ± 0.9 kcal/mol
same,∆H,[4],-9.9 ± 1.0 kcal/mol
same,∆ST,[4],-4.7 ± 0.9 kcal/mol
same,"solubility compared with the other peptide, in words",[2]; P2 compared with the longer P1,better soluble
same,solubility (soluble up to),[2],up to 8 mM
same,∆H,[5],-6.6 ± 1.2 kcal/mol
same,∆ST,[5],-1.4 ± 1.3 kcal/mol
GRMKG,KD,[1]; [9],no measurable affinity and dnb
same,association of peptide with capsids in the cryo-EM map,[6],no association
SLKGRM,KD,[1]; [9],no binding detected and dnb
SLLGEM,KD,[1]; [9],no binding detected and dnb
SLLGRM-NH2 [SLLGRM],∆ST,"[1]; ITC, 20 °C, ITC buffer 2, stoichiometry fixed to 0.25, single repeat",-3.2 kcal/mol
same,∆H,"[1]; ITC, 20 °C, ITC buffer 2, stoichiometry fixed to 0.25, single repeat, ± fit error",-8.3 ± 0.2 kcal/mol
same,association of peptide with capsids in the cryo-EM map,[6],only the CD spikes bound
